Measurements: US10925890B2, “Use of dextran sulfate” (TX MEDIC AB, priority 2014, dated 2021)

What was measured:
Type in all cases: in vivo
[1] = Body weight, mouse critical limb ischemia study
Source text: In total 60 male Balb/c mice, 9 weeks old, having an average body weight of 24.7 g at study initiation (day 0) were obtained from Harlan Laboratories, Israel. The minimal and maximal weight recorded in each group was within the range of ±20% of the group mean. Animals were handled according to the National Institute of Health (NIH) and the Association for Assessment and Accreditation of Laboratory Animal Care (AAALAC). Animals were housed in polysufone (PSU) cages (5/cage) measuring […], with stainless steel top grill having facilities for pelleted food and drinking water in glass-clear polycarbonate bottle; bedding: steam sterilized clean paddy husk (Harlan, Sani-chip, Cat #: 106S8216) was used and bedding material was changed along with the cage at least twice a week. Animals were fed ad libitum a commercial rodent diet (Teklad Certified Global 18% Protein Diet cat #: 106S8216). Animals had free access to autoclaved and acidified drinking water (pH between 2.5 and 3.5) obtained from the municipality supply. Animals were housed under standard laboratory conditions, air conditioned and filtered (HEPA F6/6) with adequate fresh air supply (minimum 15 air changes/hour). Animals were kept in a climate controlled environment. Temperatures range was 20-24° C. and RH range was 30-70% with 12 hours light and 12 hours dark cycle.
Body weight was measured on study day −1 prior to surgery and once a week thereafter. […] From day 14 onwards a gradual increase in weight was observed. Accordingly, between day 0 and day 35 the mean increase in body weight ranged between 0.4 g to 1.7 g, see Table 2.

[2] = system: Critical Hind-Limb Ischemia Mouse Model; assay: Blood flow by non-contact laser Doppler, mouse hind-limb ischemia; conditions: for folds increase in the mean blood flow due to dextran sulfate treatment: vs vehicle control 1M; for Mean change in blood flow day 35 vs. day 1: operated limb, vehicle 19.5
Description: Blood flows in legs from both sides were measured with a non-contact laser Doppler before surgery on day −1 and on days: 1, 7, 14, 21, 28 and 35 post operation. Blood flow measurements was expressed as the ratio of the flow in the ischemic limb to that in the normal limb.

[3] = Adverse effects / general health, mouse hind-limb ischemia study; conditions: 10 or 30 mg/kg s.c., up to day 35
Description: The collective data of the study confirmed the therapeutic efficacy of dextran sulfate given s.c. for the treatment of occlusive peripheral arterial disease in the Balb/c mouse animal model.
No adverse effect on general health was recorded in any of the groups. […] The findings reflect changes in blood vessel morphology, i.e. capillaries density increase, and blood vessels angiogenesis.

tMCAO rat-stroke model [4] = assay: Forelimb placing test, tMCAO rat
Description: (§1) Transient middle cerebral artery occlusion was performed according to the method previously described in Stroke 29, 2162-2170 (1998). The right common carotid artery (CCA) was exposed through a midline neck incision and carefully dissected free from surrounding nerves and fascia—from its bifurcation to the base of the skull. The occipital artery branches of the external carotid artery (ECA) were then isolated, and these branches were dissected and coagulated. The ECA was dissected further distally and coagulated along with the terminal lingual and maxillary artery branches, which was then divided. The internal carotid artery (ICA) was isolated and carefully separated from the adjacent vagus nerve, and the pterygopalatine artery was ligated close to its origin with a 5-0 nylon suture (SMI, Belgium). Next a 4-0 silk suture was tied loosely around the mobilized ECA stump, and a 4 cm length of 4-0 monofilament nylon suture (the tip of the suture was blunted by using a flame, and the suture was coated with polylysine, prior to insertion) was inserted through the proximal ECA into the ICA and thence into the circle of Willis, effectively occluding the MCA. […]
For each subtest, animals were scored as followed: • 0.0=immediate response • 0.5=response within 2 seconds • 1.0=response of 2-3 seconds • 1.5=response of >3 seconds • 2.0=no response

tMCAO rat-stroke model [5] = assay: Cerebral blood flow assessment (Flow-R Laser Doppler), tMCAO rat; conditions: day 29
Description: as §1
Evaluation of the blood flow on the brain cortex and vessel constriction was carried out using Flow-R Laser Doppler system, in which intracranial blood flow and vessels diameter (constriction/dilatation) was monitored. […]

[6] = Mortality and clinical signs, tMCAO rat study; conditions: for Rats that died within 10 hours after dosing: vehicle group 1M: 6
Description: Started two hours after occlusion (immediately after reperfusion), animals in groups 2M and 3M (dextran sulfate at doses of 30 mg/kg three times a week or 15 mg/kg daily) and animals in group 1M (vehicle control) were injected subcutaneously, see Table 10.
Eighteen rats died during the study. One rat died just after reperfusion before dosing, and seventeen rats within 10 hours after dosing (6 in group 1M, 6 in group 2M and 5 in group 3M).

[7] = system: Rat Hind-Limb Ischemia Model; assay: Blood flow by non-contact LASER Doppler, rat hind-limb ischemia; conditions: for Mean change in blood flow from Day 0 to Day 28: vehicle 14.8
Description: The femoral artery and vein were ligated twice with 4-0 silk thread and transected between the ligatures. The wound was closed with 3-0 silk thread and the rats were allowed to recover.
(§2) Animals in group 4M and 5M were injected s.c. once on Day 8, see Table 12.
Blood flows in legs from both sides were measured with a non-contact LASER Doppler before surgery on Day −1 and on Days: 1, 7, 14, 21 and 28 post operation. Blood flow measurements were expressed as the ratio of the flow in the ischemic limb to that in the normal limb.

[8] = Adverse effects, rat hind-limb ischemia study; conditions: 30 and 3 mg/kg s.c., 3 times a week or single dose
Description: as §2
In the present study blood flow improvement in the rat hind-limb ischemia model was examined in order to evaluate the efficacy of dextran sulfate in two different doses and treatment regimes. […] Both doses and administration regimens were efficacious. No spontaneous amputations or toe necrosis occurred in any of the treated or control animal groups. […] Collectively the data of this study confirmed the therapeutic efficacy of dextran sulfate for the treatment of occlusive peripheral arterial disease in the rat hind-limb ischemia model.

Dextran sulfate
Mean weight change from day 0 to day 35 ([1]; group 2M, 10 mg/kg s.c. 3 times/week from day 8): 1.0 g | Mean weight change from day 0 to day 35 ([1]; group 3M, 30 mg/kg s.c. 3 times/week from day 8): 1.7 g | Mean weight change from day 0 to day 35 ([1]; group 4M, 30 mg/kg s.c. 1 time/week from day 8): 1.0 g | Mean body weight, differences between the groups ([1]; throughout the study, two-way ANOVA, Bonferroni): no statistically significant differences | Blood perfusion compared to the vehicle treated control ([2]; 30 mg/kg s.c. three times a week or once a week): significantly restored blood perfusion | folds increase in the mean blood flow due to dextran sulfate treatment ([2]; group 2M, 10 mg/kg 3 times/week): 2.2 folds | Mean change in blood flow day 35 vs. day 1 ([2]; group 2M, 10 mg/kg s.c. 3 times/week): 46.7 units | folds increase in the mean blood flow due to dextran sulfate treatment ([2]; group 3M, 30 mg/kg 3 times/week): 3.0 folds | Mean change in blood flow day 35 vs. day 1 ([2]; group 3M, 30 mg/kg s.c. 3 times/week): 59.3 units | folds increase in the mean blood flow due to dextran sulfate treatment ([2]; group 4M, 30 mg/kg 1 time/week): 2.8 folds | Mean change in blood flow day 35 vs. day 1 ([2]; group 4M, 30 mg/kg s.c. 1 time/week): 51.1 units | Adverse effects in the treated animals [3]: did not cause any adverse effects | Forelimb placement test compared to vehicle control (tMCAO rat-stroke model [4]; all treated rats, starting on day 14 up to day 28): statistically significant improvement | Forelimb placement test, improvement in sensory motor deficits (tMCAO rat-stroke model [4]; group 3M (15 mg/kg daily), first testing on day 7): reached statistical significance | Vessels diameter ratio versus control (tMCAO rat-stroke model [5]): increased | Cerebral blood perfusion rate versus control vehicle-treated group (tMCAO rat-stroke model [5]; groups 2M and 3M, damaged hemisphere): Statistically significant improvement | Adverse clinical signs ([6]; all animal groups): No adverse clinical signs unrelated to the model | Rats that died within 10 hours after dosing ([6]; group 2M, 30 mg/kg s.c. 3 times a week): 6 rats | Rats that died within 10 hours after dosing ([6]; group 3M, 15 mg/kg s.c. daily): 5 rats | Mean change in blood flow from Day 0 to Day 28 ([7]; group 2M, 30 mg/kg s.c. 3 times a week starting on Day 8): 47.7% | Mean change in blood flow from Day 0 to Day 28 ([7]; group 3M, 30 mg/kg (as printed in Table 12) s.c. 3 times a week starting on Day 8): 39.1% | Mean change in blood flow from Day 0 to Day 28 ([7]; group 4M, 30 mg/kg s.c. administered once): 44.0% | Mean change in blood flow from Day 0 to Day 28 ([7]; group 5M, 3 mg/kg s.c. administered once): 41.0% | Ratio of blood flow HLI-injured versus non-injured leg, treated groups vs control ([7]; groups 2M, 3M, 4M and 5M vs 1M, Day 14 through Day 28): statistically significant differences | Adverse effects in the treated animals [8]: did not cause any adverse effects
